From patent US20240307309A1, “ZWITTERIONIC LIPID NANOPARTICLE COMPOSITIONS, AND METHODS OF USE” (CORNELL UNIVERSITY, priority 2020, published 2024)

Experiment: Accelerated blood clearance (ABC) effect, hEPO serum PK after multiple LNP injections (ELISA)
Assay type: in vivo, C57BL/6J mice
Settings: PCB-LNP containing the lipid; intravenous, 5 μg mRNA; third injection; compared to MC3 formulations
Protocol: Accelerated blood clearance (ABC) effect has been reported in cases where LNPs were injected multiple times with rapid clearance of LNPs observed in the subsequent injections. […] In this example, PCB-LNP containing ZW-B-CBn from Example 7 were used to study the ABC effect of LNPs. MC3-based PEG-LNP from Example 2 was used as a control.
For in vivo pharmacokinetic (PK) study, male C57BL/6J mice aged 3-4 weeks in groups of three were administered intravenously with mRNA-LNP at a dosage of 5 μg of mRNA. Two different injection cohorts were performed. (FIG. 15a) In cohort 1, only one dose of hEPO-mRNA (human erythropoietin mRNA) was given. In cohort 2, Fluc-mRNA ([…]) was dosed for the first two injections, and hEPO-mRNA for the last injection. (FIG. 15a) Cohort 2 was designed in a way to eliminate anti-hEPO immune response induced from first two injections, and thereby the PK profile of hEPO in the third injection is mainly indicating the ABC effect due to LNP components. To determine the PK profile of hEPO, mice sera were collected at 6-hour, 24-hour post-injection, and analyzed using ELISA (DuoSet, hEPO ELISA kit, R&D).

SMILES | ABC effect (hEPO serum concentration, injection cohort 2 versus cohort 1)
CCCCCCCCCOC(=O)CCCCCCCN(CCCCCCCC(=O)OC(CCCCCCCC)CCCCCCCCC)CCC(=O)O (centres unmarked) [ZW-B-CB2, 3-((8-(nonyloxy)-8-oxooctyl)(8-(octadecan-9-yloxy)-8-oxooctyl)amino)propanoic acid] | less ABC effect
CCCCCCCCCOC(=O)CCCCCCCN(CCCCCCCC(=O)OC(CCCCCCCC)CCCCCCCCC)CC(=O)O (centres unmarked) [ZW-B-CB1, N-(8-(nonyloxy)-8-oxooctyl)-N-(8-(octadecan-9-yloxy)-8-oxooctyl)glycine] | less ABC effect
